Results from ChEMBL document CHEMBL1136281, “Design and synthesis of novel chrysene-linked pyrrolo[2,1-c][1,4]-benzodiazepine hybrids as potential DNA-binding agents” (Bioorg Med Chem Lett, 2003).

Experiments:
[1] = system: PC-6; test: In vitro cytotoxicity was evaluated in PC6 cell line; assay type: functional, cell-based; conditions: Homo sapiens
[2] = system: MCF7; test: In vitro primary anticancer activity was determined in MCF-7 cell line (breast) at the concentration of […]; assay type: functional, Homo sapiens
[3] = system: NCI-H460; test: In vitro primary anticancer activity was determined in NCI-H460 cell line (Lung) at the concentration of […]; assay type: functional, Homo sapiens
[4] = system: SF-268; test: In vitro primary anticancer activity was determined in SF-268 cell line (CNS) at the concentration of […]; assay type: functional, Homo sapiens
[5] = system: A498; test: Anticancer activity against one renal cancer (A498 cell line); assay type: functional; conditions: Homo sapiens, read-out: LC50 (the source's name)
[6] = system: UACC-62; test: Anticancer activity against one melanoma cancer (UACC-62 cell line); assay type: functional; conditions: Homo sapiens, read-out: LC50 (the source's name)
[7] = system: NCI-H226; test: Anticancer activity against one non-small cell lung cancer (NCI-H226 cell line); assay type: functional; conditions: Homo sapiens, read-out: LC50 (the source's name)

For COc1cc2c(cc1O)N=C[C@@H]1CCCN1C2=O, the IC50 [1] was 0.33 µM.
In the case of COc1cc2c(cc1OCCCC(=O)Nc1cc3c4ccccc4ccc3c3ccccc13)N=C[C@@H]1CCCN1C2=O, the Growth [2] is reported as 56%, the Growth [3] is reported as 105% and the Growth [4] is reported as 121%.
Work on COc1cc2c(cc1OCCCCC(=O)Nc1cc3c4ccccc4ccc3c3ccccc13)N=C[C@@H]1CCCN1C2=O yielded a CC50 [5] of 6.29 µM, a CC50 [6] of 4.07 µM and a Growth [2] of 1%. It also gave a Growth [3] of 0%, a Growth [4] of 12% and a CC50 [7] of 4.5 µM.
